Measured values taken from patent publication US11564913B2, “Compositions and methods for treating cancer” (Children's Hospital Medical Center, priority 2019, dated 2023).

Columns and labels:
[1] = tested on: H2122 lung cancer xenografts; experiment: H2122 xenograft mouse model; type: in vivo, mice
From the text: FIG. 8: IODVA1 inhibits tumor growth of human breast and lung cancer xenografts. […] (B) Tumors were also stained for Ki67 as a proliferation marker (top panel). […] (C) Quantification of Ki67-positive and cleaved caspase 3-positive cells of tumors shown in (B). […] Animals began treatment when tumors became detectable at 10 days post-injection (*, p<0.05). […] IODVA1 treated tumors also had fewer proliferating cells compared to control vehicle treated animals, as determined by immunohistochemical staining for Ki67 (bottom) and increased intratumoral fibrosis. Representative images were taken at 100× magnification, scale bar is 200 μm. (F) Quantification of Ki67+ cells in control and IODVA1 treated tumors shown in (E).
The lung cancer mouse model was generated by injecting the lung cancer H2122 cells at the right and left flanks of NSG mice. These cells harbor the KRAS^G12C mutation and form aggressive tumors. Mice were treated with IODVA1 or with vehicle control every other day for 14 days. […]
Human lung cancer cell line NCI-H2122 (ATCC) harboring biallelic KRAS^G12C mutations were cultured in RPMI-1640 supplemented with 10% FBS. […] Tumor size was measured using digital calipers and tumor volume estimated using the formula (length×width^2)/2. […] A minimum of 20 random fields were used for quantification. […]

[2] = tested on: pPAK4(S474)/pPAK5(S602)/PAK6(S560) in MDA-MB-231 cells; experiment: pPAK immunoblot; type: cell-based, human; details: 0.3 and 1 μM, up to 3 h incubation
[3] = tested on: MCF7, T47D, and MDA-MB-231 cells; experiment: Colony formation in soft agar, breast cancer cells; type: cell-based; details: 1 and 3 μM
Protocol: FIG. 4. IODVA1 inhibits proliferation of cancer model cells. (A) IODVA1 is a potent cell proliferation inhibitor. MCF10A, MCF7, MDA-MB-231, and T47D cells were grown in the presence of the indicated IODVA1 concentrations and counted for 4 or up to 7 days. Each dot and bar is the mean±stdev respectively, of 3 independent experiments, with 2 technical replicates in each experiment. (B) Number of colonies made by MCF7, T47D, and MDA-MB-231 cells at the indicated IODVA1 concentrations. Results shown are mean±stdev of 2 independent experiments with 4 technical replicates each. (C) IODVA1 deactivates Ras at late incubation times. […] Quantification summary of 2 independent experiments is presented in the graph. n.s.—not significant, *-p<0.05, **-p<0.01, ****-p<0.0001. (D) IODVA1 inhibits proliferation of ST8814 cells. ST8814 cells were grown in the presence of the indicated IODVA1 concentrations and counted daily for 4 days. Each dot and bar is the mean and standard deviation respectively, of 3 independent experiments.
Applicants tested IODVA1's ability to inhibit the proliferation of cells harboring activated Ras and therefore its ability to recapitulate the compound obtained from the NCI. […] Cells were grown in growth media containing IODVA1 at concentrations between 0.1 and 10 μM or vehicle control and cell number was counted using the trypan blue exclusion method. […]

For `OC1(c2ccccn2)N=C(Nc2nc3ccccc3[nH]2)N=C1c1ccccn1` (stereo not shown) [IODVA1, (Z)-2-((1H-benzo[d]imidazol-2-yl)imino)-4,5-di(pyridin-2-yl)-2,5-dihydro-1H-imidazol-5-ol], the tumor volume ([1]; IP 250 μl of 1 mM every other day for 14 days) was “significant decrease”, the “number of Ki67-positive tumor cells” value ([1]; IP every other day for 14 days) was “significant decrease” and the “levels of pPAK4/5/6” value [2] was “did not change”. For the same molecule, the “number of colonies in soft agar” value [3] was “significantly decreases”.
